Laboratory results as given in US20160089346A1, “METHOD OF TREATMENT FOR BODY CONTOURING” (Neothetics, Inc., priority 2014, published 2016).

Tests used:
[1] = tested on: non-obese adult subjects with central abdominal bulging; assay: Phase 2 RESET trial: adverse effects and tolerability; assay type: in vivo, human; details: for Any Adverse Event Definitely or Possibly Related to Study Drug (incidence): 20 SC injections once a week for 8 weeks
Method: (§1) Methods: A randomized, double-blind, placebo-controlled study was conducted to evaluate the safety and efficacy of a composition comprising the long-acting beta-2 receptor agonist salmeterol xinafoate. This study was reviewed and approved by a central IRB (Chesapeake IRB, Columbia, Md.) and written informed consent was received from all study subjects. The study enrolled 513 adult subjects with central abdominal bulging at 31 investigative sites across the U.S. Subjects were required to be non-obese (BMI<30 kg/m^2), have a focal area of central abdominal bulging due to excess subcutaneous fat (˜400 cm^2 area around the umbilicus), have adequate skin elasticity, have at least a rating of “slight bulge, not flat” on both the 5-point Patient- and Clinician-Global Abdominal Perception Scales (P-GAPS and C-GAPS) at Screening and Day 1, and who were at least slightly dissatisfied with their abdominal bulging in the treatment area. The P-GAPS includes the ratings: flat, almost flat, slight bulge/not flat, […].
(§2) Subjects were randomized to receive 1 of 3 doses of salmeterol xinafoate (0.4, 1.0, or 4.0 μg total weekly dose) or placebo (0.9% Sodium Chloride Injection, USP) once a week for 8 weeks starting on Day 1 after all entry criteria had been satisfied. Randomization was based on a computer-generated, site-based randomization schedule, which was distributed to authorized, unblinded personnel at each site. Twenty, 1 mL weekly subcutaneous (SC) injections administered via a ½ inch 30 gauge needle were spaced 4 cm apart on the anterior abdomen between axial planes at +35 mm and −70 mm, relative to the umbilicus. Consistent injection placement was assured by the weekly application of a water-based temporary tattoo defining the location of the 20 administration injection sites. Efficacy endpoints included a Patient- and Clinician-Global Abdominal Perception Scale, a Patient and Clinician Photonumeric Scale (PPnS and CPnS) and duplicate abdominal circumference measurements (taken at +35 mm, 0 and −70 mm, relative to the umbilicus, using a standardized tape measurement (e.g., laser-guided) procedure).
Demographics & Safety Results: Subjects enrolled in the study were primarily female (81%; 418/513), white (86%; 440/513), with a mean age of 38 (18−71) years and a mean BMI of 23.4 (18.2−29.9) kg/m^2. […] Ninety-two percent completed the study per protocol; 6 subjects (1%) were lost to follow-up, 4 subjects (<1%) were terminated for protocol violation, 10 subjects (2%) withdrew consent and 21 subjects (4%) withdrew for miscellaneous causes. […] The most frequently reported treatment-emergent adverse effects related to study drug were mild and transient injection site events, including hematoma, erythema, contusion, and pain. The incidence of these adverse effects is reported in Table 1 (a single incidence (<1%) of an adverse event was reported randomly across organ systems and all treatment groups and is not reported in the table). These injection site events occurred with a similar frequency in subjects in the placebo group and in the salmeterol xinafoate groups and were considered to be related to the typical mechanical trauma of an injection procedure rather than the study drug itself.

[2] = tested on: central abdominal bulging due to excess subcutaneous fat; assay: Phase 2 RESET trial: patient and clinician rating scales (P-GAPS, C-GAPS, PPnS, CPnS), composite responders; assay type: in vivo, human; details: 0.4 μg total weekly dose
Method: as §1, §2
A specific set of standardized instructions (e.g., patient positioning, posture, breathing, etc.) were followed for the collection of all ratings and measurements. Designated clinical site personnel were trained in person to perform each procedure; some procedures also included a training video. […] Specific to the laser-guided tape measure procedure, the reproducibility of the procedure beyond what is obtained with a standard manual tape measure was enhanced with the water-based tattoo on the anterior abdomen, a self-tensioning tape measure, a tripod-mounted laser level and electronic data capture to ensure the independent recording of circumferential measurements. […]

[3] = tested on: central abdominal bulging due to excess subcutaneous fat; assay: Phase 2 RESET trial: abdominal circumference by laser-guided tape measure, and calculated abdominal volume; assay type: in vivo, human; details: 0.4 μg total weekly dose
Method: as §1, §2
A specific set of standardized instructions (e.g., patient positioning, posture, breathing, etc.) were followed for the collection of all ratings and measurements. Designated clinical site personnel were trained in person to perform each procedure; some procedures also included a training video. […] Specific to the laser-guided tape measure procedure, the reproducibility of the procedure beyond what is obtained with a standard manual tape measure was enhanced with the water-based tattoo on the anterior abdomen, a self-tensioning tape measure, a tripod-mounted laser level and electronic data capture to ensure the independent recording of circumferential measurements. Both the 5-point patient and clinician verbal scales (P-GAPS and C-GAPS) that assigned scores ranging from flat to big (or pronounced) bulge, as well as the 6-point patient and clinician photonumeric scales (PPnS and CPnS) that are a match-to-sample task in which an abdominal profile are selected from a series of 6 identical torsos with a progressively larger anterior abdominal bulge were specifically developed and validated to assess treatment effects in non-obese subjects with central abdominal bulging. Neither patients nor clinicians had access to the others' scale ratings and neither had access to previous scale scores. Final assessments on all outcome measures were performed 1 week after the last injections (Day 57±2 days).
All efficacy analyses used a repeated measures analysis of covariance (ANCOVA) model to determine differences between each active treatment group and placebo. […]

[4] = compared with albuterol, a short-acting hydrophilic beta-adrenergic agonist; cited from earlier work
[5] = subjects weight neutral or lost weight (≦0 kg)

OCc1cc(C(O)CNCCCCCCOCCCCc2ccccc2)ccc1O (stereo not shown) [salmeterol xinafoate]
Injection Site Erythema (incidence) ([1]; 0.4 μg total weekly dose): 2%
Injection Site Hematoma (incidence) ([1]; 0.4 μg total weekly dose): 5%
Injection Site Hemorrhage (incidence) ([1]; 0.4 μg total weekly dose): 0%
Injection Site Pain (incidence) ([1]; 0.4 μg total weekly dose): 3%
Any Adverse Event Definitely or Possibly Related to Study Drug (incidence) ([1]; 0.4 μg total weekly dose): 11%
Injection Site Erythema (incidence) ([1]; 1.0 μg total weekly dose): 2%
Injection Site Hematoma (incidence) ([1]; 1.0 μg total weekly dose): 6%
Injection Site Hemorrhage (incidence) ([1]; 1.0 μg total weekly dose): 0%
Injection Site Pain (incidence) ([1]; 1.0 μg total weekly dose): 2%
Any Adverse Event Definitely or Possibly Related to Study Drug (incidence) ([1]; 1.0 μg total weekly dose): 12%
Injection Site Erythema (incidence) ([1]; 4.0 μg total weekly dose): 0%
Injection Site Hematoma (incidence) ([1]; 4.0 μg total weekly dose): 6%
Injection Site Hemorrhage (incidence) ([1]; 4.0 μg total weekly dose): 0%
Injection Site Pain (incidence) ([1]; 4.0 μg total weekly dose): 2%
Any Adverse Event Definitely or Possibly Related to Study Drug (incidence) ([1]; 4.0 μg total weekly dose): 12%
Tolerability ([1]; 0.4, 1.0 and 4.0 μg total weekly dose, 20 SC injections into abdominal adipose tissue once a week for 8 weeks): well tolerated
Significant adverse events during the study ([1]; all dose groups, 8 weeks): no significant adverse events
Change from baseline across all rating instruments (P-GAPS, C-GAPS, PPnS, CPnS) [2]: consistent mean reductions from baseline
Composite responders (2-point improvement on P-GAPS and 2-point improvement on CPnS) compared to placebo [2]: significantly more responders
% composite responders (1-point improvement on P-GAPS and 2-point improvement on CPnS) ([2]; all subjects): 16%
% composite responders (1-point improvement on P-GAPS and 2-point improvement on CPnS) [2, 5]: 22%
Change in abdominal volume from baseline ([3]; Day 57, all subjects, +35 mm to −70 mm relative to the umbilicus, placebo −90 mL, p=0.001): -192 mL
Mean change in abdominal circumference at the umbilicus from baseline ([3]; Day 57, all subjects, placebo −0.7 cm, p=0.001): −1.6 cm
Mean reduction in abdominal volume relative to placebo ([3]; all subjects): -102 mL
Mean reduction in umbilical circumference relative to placebo ([3]; all subjects): −0.9 cm
Mean reduction in abdominal volume from baseline [3, 5]: -329 mL
Mean reduction in abdominal volume relative to placebo [3, 5]: -175 mL
Mean reduction in umbilical circumference from baseline [3, 5]: −2.7 cm
Mean reduction in umbilical circumference relative to placebo [3, 5]: −1.6 cm
Dose comparison of efficacy across most outcome measures ([3]; lowest dose, 0.02 μg/mL): the most efficacious

OCc1cc(C(O)CNCCCCCCOCCCCc2ccccc2)ccc1O (stereo not shown) [salmeterol]
Lipophilicity relative to albuterol [4]: at least 10,000 times
